The compounds below were run on PC3 cells (assay: NAMPT Cell Proliferation Assay). Settings: Homo sapiens, PC-3, 120 h, 5 days incubation, cell viability by Cell Titer Glo.
Format: cell-based
Method in brief: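 IC50 values derive from sigmoidal dose-response fits of percent inhibition of PC3 viability, measured by luminescence after 5 days of compound treatment. Cells (500/well, RPMI containing 10% heat-inactivated FBS) are allowed to attach overnight, and compounds are tested at 10-fold dilutions between 10 μM and 1×10^−5 μM.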

Row | SMILES | IC50 [nM]
1 | CCC1CCCCN1C(=O)C(=O)N1CCC(c2ccc(C(=O)NCc3ccn4ccnc4c3)cc2)CC1 (stereo not drawn) [Example 1117, 4-{1-[(2-ethylpiperidin-1-yl)(oxo)acetyl]piperidin-4-yl}-N-(imidazo[1,2-a]pyridin-7-ylmethyl)benzamide] | 65.7
2 | Cn1cc2ccc(C(=O)N3CCC(c4ccc(C(=O)NCc5ccn6ccnc6c5)cc4)CC3)cc2n1 [Example 1118, N-(imidazo[1,2-a]pyridin-7-ylmethyl)-4-{1-[(2-methyl-2H-indazol-6-yl)carbonyl]piperidin-4-yl}benzamide] | 4.18
3 | Cn1ncc2c(C(=O)N3CCC(c4ccc(C(=O)NCc5ccn6ccnc6c5)cc4)CC3)cccc21 [Example 1119, N-(imidazo[1,2-a]pyridin-7-ylmethyl)-4-{1-[(1-methyl-1H-indazol-4-yl)carbonyl]piperidin-4-yl}benzamide] | 6.67
4 | O=C(NCc1ccn2ccnc2c1)c1ccc(C2CCN(C(=O)c3ccoc3C(F)(F)F)CC2)cc1 [Example 1120, N-(imidazo[1,2-a]pyridin-7-ylmethyl)-4-(1-{[2-(trifluoromethyl)furan-3-yl]carbonyl}piperidin-4-yl)benzamide] | 2.37
5 | O=C(NCc1ccn2ccnc2c1)Nc1ccc(C2CCN(C(=O)c3cnc(C4CC4)s3)CC2)cc1 [Example 1121, 1-(4-{1-[(2-cyclopropyl-1,3-thiazol-5-yl)carbonyl]piperidin-4-yl}phenyl)-3-(imidazo[1,2-a]pyridin-7-ylmethyl)urea] | 8.42
6 | O=C(NCc1ccn2ccnc2c1)Nc1ccc(C2CCN(C(=O)c3ccc4scnc4c3)CC2)cc1 [Example 1122, 1-{4-[1-(1,3-benzothiazol-5-ylcarbonyl)piperidin-4-yl]phenyl}-3-(imidazo[1,2-a]pyridin-7-ylmethyl)urea] | 9.96
7 | Cn1ncc2ccc(C(=O)N3CCC(c4ccc(NC(=O)NCc5ccn6ccnc6c5)cc4)CC3)cc21 [Example 1123, 1-(imidazo[1,2-a]pyridin-7-ylmethyl)-3-(4-{1-[(1-methyl-1H-indazol-6-yl)carbonyl]piperidin-4-yl}phenyl)urea] | 7.11
8 | Cc1nn(C)c(C(=O)N2CCC(c3ccc(NC(=O)NCc4ccn5ccnc5c4)cc3)CC2)c1Cl [Example 1124, 1-(4-{1-[(4-chloro-1,3-dimethyl-1H-pyrazol-5-yl)carbonyl]piperidin-4-yl}phenyl)-3-(imidazo[1,2-a]pyridin-7-ylmethyl)urea] | 0.344
9 | CCc1ccc(C(=O)N2CCC(c3ccc(NC(=O)NCc4ccn5ccnc5c4)cc3)CC2)nc1 [Example 1125, 1-(4-{1-[(5-ethylpyridin-2-yl)carbonyl]piperidin-4-yl}phenyl)-3-(imidazo[1,2-a]pyridin-7-ylmethyl)urea] | 4.77
10 | N#Cc1cnc(C(=O)N2CCC(c3ccc(NC(=O)NCc4ccn5ccnc5c4)cc3)CC2)c(Cl)c1 [Example 1126, 1-(4-{1-[(3-chloro-5-cyanopyridin-2-yl)carbonyl]piperidin-4-yl}phenyl)-3-(imidazo[1,2-a]pyridin-7-ylmethyl)urea] | 2.36

Other lines, results leading:

Row | IC50 [nM] | SMILES
11 | 2.99 | CC1CC(C#N)(C(=O)N2CCC(c3ccc(NC(=O)NCc4ccn5ccnc5c4)cc3)CC2)C1 (stereo not drawn) [Example 1127, 1-(4-{1-[(1-cyano-3-methylcyclobutyl)carbonyl]piperidin-4-yl}phenyl)-3-(imidazo[1,2-a]pyridin-7-ylmethyl)urea]
12 | 6.05 | CCc1c(C(=O)N2CCC(c3ccc(NC(=O)NCc4ccn5ccnc5c4)cc3)CC2)nnn1CC [Example 1128, 1-(4-{1-[(1,5-diethyl-1H-1,2,3-triazol-4-yl)carbonyl]piperidin-4-yl}phenyl)-3-(imidazo[1,2-a]pyridin-7-ylmethyl)urea]
13 | 8.05 | O=C(NCc1ccn2ccnc2c1)Nc1ccc(C2CCN(C(=O)c3cc4occc4s3)CC2)cc1 [Example 1129, 1-(imidazo[1,2-a]pyridin-7-ylmethyl)-3-{4-[1-(thieno[3,2-b]furan-5-ylcarbonyl)piperidin-4-yl]phenyl}urea]
14 | 2.96 | COc1csc(C(=O)N2CCC(c3ccc(NC(=O)NCc4ccn5ccnc5c4)cc3)CC2)c1 [Example 1130, 1-(imidazo[1,2-a]pyridin-7-ylmethyl)-3-(4-{1-[(4-methoxythiophen-2-yl)carbonyl]piperidin-4-yl}phenyl)urea]
15 | 34.4 | N#Cc1ccc(C(=O)N2CCC(c3ccc(NC(=O)NCc4ccn5ccnc5c4)cc3)CC2)s1 [Example 1131, 1-(4-{1-[(5-cyanothiophen-2-yl)carbonyl]piperidin-4-yl}phenyl)-3-(imidazo[1,2-a]pyridin-7-ylmethyl)urea]
16 | 8.96 | O=C(NCc1ccn2ccnc2c1)Nc1ccc(C2CCN(C(=O)c3ccc(C4CC4)cn3)CC2)cc1 [Example 1132, 1-(4-{1-[(5-cyclopropylpyridin-2-yl)carbonyl]piperidin-4-yl}phenyl)-3-(imidazo[1,2-a]pyridin-7-ylmethyl)urea]
17 | 1 | N#Cc1cc(F)c(C(=O)N2CCC(c3ccc(NC(=O)NCc4ccn5ccnc5c4)cc3)CC2)c(F)c1 [Example 1133, 1-{4-[1-(4-cyano-2,6-difluorobenzoyl)piperidin-4-yl]phenyl}-3-(imidazo[1,2-a]pyridin-7-ylmethyl)urea]
18 | 5.51 | CCn1cc(C(=O)N2CCC(c3ccc(NC(=O)NCc4ccn5ccnc5c4)cc3)CC2)c(C(C)C)n1 [Example 1134, 1-[4-(1-{[1-ethyl-3-(propan-2-yl)-1H-pyrazol-4-yl]carbonyl}piperidin-4-yl)phenyl]-3-(imidazo[1,2-a]pyridin-7-ylmethyl)urea]
19 | 4.23 | O=C(NCc1ccn2ccnc2c1)Nc1ccc(C2CCN(C(=O)c3coc4ccccc34)CC2)cc1 [Example 1135, 1-{4-[1-(1-benzofuran-3-ylcarbonyl)piperidin-4-yl]phenyl}-3-(imidazo[1,2-a]pyridin-7-ylmethyl)urea]
20 | 3.02 | COc1cc(C(=O)N2CCC(c3ccc(NC(=O)NCc4ccn5ccnc5c4)cc3)CC2)ncc1C [Example 1136, 1-(imidazo[1,2-a]pyridin-7-ylmethyl)-3-(4-{1-[(4-methoxy-5-methylpyridin-2-yl)carbonyl]piperidin-4-yl}phenyl)urea]
21 | 0.277 | O=C(NCc1ccn2ccnc2c1)Nc1ccc(C2CCN(C(=O)c3ccnn3C3CCCC3)CC2)cc1 [Example 1137, 1-(4-{1-[(1-cyclopentyl-1H-pyrazol-5-yl)carbonyl]piperidin-4-yl}phenyl)-3-(imidazo[1,2-a]pyridin-7-ylmethyl)urea]
22 | 3.85 | O=C(NCc1ccn2ccnc2c1)Nc1ccc(C2CCN(C(=O)c3scnc3Cl)CC2)cc1 [Example 1138, 1-(4-{1-[(4-chloro-1,3-thiazol-5-yl)carbonyl]piperidin-4-yl}phenyl)-3-(imidazo[1,2-a]pyridin-7-ylmethyl)urea]
23 | 1.41 | N#Cc1ccsc1C(=O)N1CCC(c2ccc(NC(=O)NCc3ccn4ccnc4c3)cc2)CC1 [Example 1139, 1-(4-{1-[(3-cyanothiophen-2-yl)carbonyl]piperidin-4-yl}phenyl)-3-(imidazo[1,2-a]pyridin-7-ylmethyl)urea]
24 | 5.84 | CC(C)c1ncncc1C(=O)N1CCC(c2ccc(NC(=O)NCc3ccn4ccnc4c3)cc2)CC1 [Example 1140, 1-(imidazo[1,2-a]pyridin-7-ylmethyl)-3-[4-(1-{[4-(propan-2-yl)pyrimidin-5-yl]carbonyl}piperidin-4-yl)phenyl]urea]
